# How the values were obtained:
# [1] = 25° C.; literature values (WO2018/164937, EFSA Journal); cited from earlier work
# [2] = Moisture / water content of dried oligosaccharide powder (Karl Fischer titration, infrared moisture analyzer); format: physicochemical; settings: powder from ATFD system B; heated surface 64-70° C., 20-40 mbar, rotor 800-850 rpm; about 20% dry weight solution in reverse osmosis water
# From the text: Sartorius MA150 Infrared Moisture Analyzer is used to determine the dry matter content of the oligosaccharides. 0.5 g of oligosaccharide is weighed on an analytical balance and is dried in the infrared moisture analyzer until the weight of the sample is stable. The mass of the dried sample divided by the mass of the sample before drying gives the dry matter content (in percent) of the oligosaccharides or sample including oligosaccharides. In a similar way a liquid sample is weighed, however, the amount of liquid weighed is adapted to the expected amount of dry matter in the liquid, so the mass of the dry matter is properly measurable on an analytical balance.
# A moisture analyzer measures the dry matter, but not the water content. Karl Fisher titration is used to determine the amount of water present in a powder, ingredient of food. […]
# The moisture content (MC) of sample was calculated using the following equation: […]
# For testing the principle of agitated thin film drying on oligosaccharides according to the disclosure, a model system (i.e., system A as described throughout the Examples) is used wherein the model directly translates to large scale manufacturing. […] The ATFD chamber was equipped with a Liebig condenser and a dropping funnel to condense and quantify the vapor release. […]
# Solutions (such as syrups) containing an oligosaccharide or a mixture of oligosaccharides were preheated to a temperature between 3° and 100° C. and pumped to the system with a peristaltic pump with a flow ranging from 0.1 to 1 kg/h. […] The amount of condensed water was measured and used to obtain the evaporation rate. The specific evaporation rate was calculated by dividing the evaporation rate by the used heat exchange area.
# A pilot ATFD system (i.e., system B as described throughout the Examples) was used to produce larger amounts of dried oligosaccharide. […] The amount of condensed water was measured and used to obtain the evaporation rate. The specific evaporation rate was calculated by dividing the evaporation rate by the used heat exchange area. […]
# [3] = Oligosaccharide analysis of ATFD powder: breakdown during the drying run; format: physicochemical; settings: ATFD system B; 1-hour run (2′FL) or 2-hour run (LNnT, 6′SL); heated surface 64-70° C., 20-40 mbar
# Description: Neutral oligosaccharides were analyzed on a Waters™ Acquity H-class UPLC with Evaporative Light Scattering Detector (ELSD) or a Refractive Index (RI) detection. A volume of 0.7 μL sample was injected on a Waters™ Acquity UPLC BEH Amide column (2.1×100 mm; 130 Å; 1.7 μm) column with an Acquity UPLC BEH Amide VanGuard column, 130 Å, 2.1×5 mm. The column temperature was 50° C. The mobile phase consisted of a ¼ water and ¾ acetonitrile solution to which 0.2% triethylamine was added. The method was isocratic with a flow of 0.130 mL/min. […] The temperature of the RI detector was set at 35° C.
# (§1) Sialylated oligosaccharides were analyzed on a Waters™ Acquity H-class UPLC with Refractive Index (RI) detection. A volume of 0.5 μL sample was injected on a Waters™ Acquity UPLC BEH Amide column (2.1×100 mm; 130 Å; 1.7 μm). The column temperature was 50° C. The mobile phase consisted of a mixture of 70% acetonitrile, 26% ammonium acetate buffer (150 mM) and 4% methanol to which 0.05% pyrrolidine was added. The method was isocratic with a flow of 0.150 mL/min. The temperature of the RI detector was set at 35° C.
# as §1, with “Both neutral and sialylated sugars” for “Sialylated oligosaccharides”, “72% acetonitrile and 28%” for “70% acetonitrile, 26%”, “(100” for “(150”, “mM)” for “mM) and 4% methanol”, “0.1% triethylamine” for “0.05% pyrrolidine”, “0.260” for “0.150”
# A pilot ATFD system (i.e., system B as described throughout the Examples) was used to produce larger amounts of dried oligosaccharide. The inner diameter and length of the drying chamber is 15.1 cm and 41.7 cm, respectively. The heat exchanger area is 0.2 m^2. […] The amount of condensed water was measured and used to obtain the evaporation rate. The specific evaporation rate was calculated by dividing the evaporation rate by the used heat exchange area.
# [4] = Color of powder obtained by ATFD; format: physicochemical; settings: ATFD system B; from 15 min (2′FL), 30 min (LNnT) or 20 min (6′SL) and at each subsequent time-point
# From the text: In a first aspect, provided is a method for drying an oligosaccharide and/or for obtaining an oligosaccharide in the form of a solid (preferably a powder), the method comprising the steps of: • i) providing a solution comprising an oligosaccharide; and • ii) applying the solution to an agitated thin film dryer, • wherein the oligosaccharide has a degree of polymerization (DP) that is less than 16, preferably less than 15, even more preferably less than 14, even more preferably less than 13, even more preferably less than 12, even more preferably less than 11, even more preferably less than 10, even more preferably less than 9, even more preferably less than 8, most preferably less than 7. […] The “ICUMSA” refers to the International Commission for Uniform methods of Sugar Analysis, i.e., the unit used for the measurement of sugar color.
# A pilot ATFD system (i.e., system B as described throughout the Examples) was used to produce larger amounts of dried oligosaccharide. The inner diameter and length of the drying chamber is 15.1 cm and 41.7 cm, respectively. The heat exchanger area is 0.2 m^2. The heat exchanger area can be heated at 50-120° C. using steam. The distance between the rotor and wall is 0.9 mm. The blades can rotate at 200-2200 rpm. The condenser was operated with cooling water of 5-6° C. The amount of condensed water was measured and used to obtain the evaporation rate. The specific evaporation rate was calculated by dividing the evaporation rate by the used heat exchange area.
# [5] = Bulk density of powder (ASTM D1895 method A, i.e., ISO Method R 60); format: physicochemical; settings: for bulk density of the powder obtained by ATFD, average during the run: ATFD system B powder; for bulk density of the spray dried powder: spray dried powder (comparison)
# From the text: As used herein, the term “bulk density” is the weight of the particles of a particulate solid (such as a powder) in a given volume, and is expressed in grams per liter (g/L). The total volume that the particles of a particulate solid occupy depends on the size of the particles themselves and the volume of the spaces between the particles. Entrapped air between and inside the particles also can affect the bulk density. Thus, a particulate solid consisting of large, porous particles with large inter-particulate spaces will have a lower bulk density than a particulate solid consisting of small, non-porous particles that compact closely together. Bulk density can be expressed in two forms: “loose bulk density” and “tapped bulk density.” Loose bulk density (also known in the art as “freely settled” or “poured” bulk density) is the weight of a particulate solid divided by its volume where the particulate solid has been allowed to settle into that volume of its own accord (e.g., a powder poured into a container).
# Techniques for measuring bulk density are well known in the art. Loose bulk density may be measured using a measuring cylinder and weighing scales: the particulate solid is poured into the measuring cylinder and the weight and volume of the particulate solid; weight divided by volume gives the loose bulk density. Tapped bulk density can be measured using the same technique, with the addition of tapping the measuring cylinder a set number of times before measuring weight and volume. Automation of tapping ensures the number, timing and pressure of individual taps is accurate and consistent. Automatic tapping devices are readily available, an example being the Jolting Stampfvolumeter (STAV 203) from J. Englesmann A G.
# Lacto-N-neotetraose (LNnT) was recombinantly produced in E. coli according to Example 2, followed by a cell lysis treatment and/or broth clarification according to Example 4. The clarified broth was finally spray dried as described in Example 1 to obtain a powder comprising LNnT (74%), pLNnH (13%; para-lacto-N-neohexaose) and LNT-II (3%; lacto-N-triose II). A solution (16.1 kg) of LNnT was then prepared in reverse osmosis water such that the dry weight is 19.60%. The LNnT solution was then fed into the ATFD system B (it is referred to Example 1) at 7.7 kg/h. […] Every 5 minutes, a sample of the obtained powder was analyzed according to Example 1 (dry matter content, moisture content, oligosaccharide analysis, color).
# 6′-sialyllactse (6′SL) was recombinantly produced in E. coli according to Example 2, followed by a cell lysis treatment and/or broth clarification according to Example 4. […] Every 5 minutes, a sample of the obtained powder was analyzed according to Example 1 (dry matter content, moisture content, oligosaccharide analysis, color).
Molecule,solubility in an aqueous solution [1],mean moisture content [2],oligosaccharide broken down at the end of the run [3],color of the obtained powder [4],"bulk density of the powder obtained by ATFD, average during the run [5]",bulk density of the spray dried powder [5]
CC(=O)N[C@H]1[C@H]([C@H](O)[C@H](O)CO)O[C@@](O[C@H]2[C@@H](O)[C@@H](CO)O[C@@H](O[C@H]3[C@H](O)[C@@H](O)C(O)O[C@@H]3CO)[C@@H]2O)(C(=O)O)C[C@@H]1O (stereo partly drawn) [3′-sialyllactose],500 mg/mL,–,–,–,–,–
2′-fucosyllactose,1410 mg/mL,2.47%,less than 4%,white to off-white,–,–
CC(=O)N[C@H]1[C@H](O[C@H]2[C@@H](O)[C@@H](CO)O[C@@H](O[C@H]3[C@H](O)[C@@H](O)C(O)O[C@@H]3CO)[C@@H]2O)O[C@H](CO)[C@@H](O)[C@@H]1O[C@@H]1O[C@H](CO)[C@H](O)[C@H](O)[C@H]1O (stereo partly drawn) [Lacto-N-tetraose],400 mg/mL,–,–,–,–,–
CC(=O)N[C@H]1[C@H]([C@H](O)[C@H](O)CO)O[C@@](OC[C@H]2O[C@@H](O[C@H]3[C@H](O)[C@@H](O)[C@H](O)O[C@@H]3CO)[C@H](O)[C@@H](O)[C@H]2O)(C(=O)O)C[C@@H]1O [6′-sialyllactose],at least 500 g/L,6.2-6.8%,less than 10%,white to off-white,521 ± 10 g/L,321 g/L
CC(=O)N[C@H]1[C@H](O[C@H]2[C@@H](O)[C@@H](CO)O[C@@H](O[C@H]3[C@H](O)[C@@H](O)C(O)O[C@@H]3CO)[C@@H]2O)O[C@H](CO)[C@@H](O[C@@H]2O[C@H](CO)[C@H](O)[C@H](O)[C@H]2O)[C@@H]1O (mixture of isomers) [Lacto-N-neotetraose],500 mg/mL,5.5%,less than 10%,white to off-white,509 ± 16 g/L,368 g/L
